# Target: T1, human IDO1 (Homo sapiens, UniProt P14902)
# T1 construct: expressed in transfected cells
# Assay: HEK293 human IDO1 cell-based IDO inhibition assay
# Details: HEK293 cells stably expressing human IDO1; 20 hours incubation; absorbance at 490 nm (Ehrlich reagent); 500 nM reference standard = 100% inhibition; read-out: HEK Human IDO-1 Potency
# Method: 1HEK293 cells were transfected with a pCDNA-based mammalian expression vector harboring human IDO1 cDNA (NM 002164.2) by electroporation. They were cultured in medium (DMEM with 10% FBS) containing 1 mg/ml G418 for two weeks. Clones of HEK293 cells that stably expressed human IDO1 protein were selected and expanded for IDO inhibition assay.
# The human IDOL/HEK293 cells were seeded at 10,000 cells per 50 μL per well with RPMI/phenol red free media contains 10% FBS in a 384-well black wall clear bottom tissue culture plate (Matrix Technologies LLC) 100 nL of certain concentration of compound was then added to each well using ECHO liquid handling systems. The cells were incubated for 20 hours in 37° C. incubator with 5% CO2.
# The compound treatments were stopped by adding Trichloroacetic Acid (Sigma-Aldrich) to a final concentration at 0.2%. The cell plate was further incubated at 50° C. for 30 minute. The equal volume supernatant (20 μL) and 0.2% (w/v) Ehrlich reagent (4-dimethylaminobenzaldehyde, Sigma-Aldrich) in glacial acetic acid were mixed in a new clear bottom 384-well plate. This plate was then incubated at room temperature for 30 minute. The absorbance at 490 nm was measured on Envision plate reader.
# T1 sequence (P14902 whole entry): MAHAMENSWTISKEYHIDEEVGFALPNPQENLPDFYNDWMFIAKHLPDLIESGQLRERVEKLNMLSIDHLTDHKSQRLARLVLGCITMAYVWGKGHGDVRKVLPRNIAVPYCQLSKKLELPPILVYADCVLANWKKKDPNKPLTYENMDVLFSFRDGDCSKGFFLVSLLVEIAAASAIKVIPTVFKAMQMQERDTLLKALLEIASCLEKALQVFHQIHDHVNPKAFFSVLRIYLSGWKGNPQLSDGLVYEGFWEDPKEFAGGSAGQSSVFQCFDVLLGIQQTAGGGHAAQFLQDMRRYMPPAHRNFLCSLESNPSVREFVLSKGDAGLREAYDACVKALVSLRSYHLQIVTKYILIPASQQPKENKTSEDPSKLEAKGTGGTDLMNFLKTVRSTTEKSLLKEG
row,Molecule,IC50
1,N-(4-chlorophenyl)-2-(trans-4-(6-fluoroquinolin-4-yl)-1-hydroxycyclohexyl) propanamide [Example 230],< 250 nM
2,N-(4-chlorophenyl)-2-(trans-4-(6-fluoroquinolin-4-yl)-1-hydroxycyclohexyl) propanamide [Example 229],< 50 nM

# Same assay, conditions: read-out: HEK Human IDO-1 Potency
row,Molecule,IC50
1,"CC(C(=O)Nc1ccc(F)cc1)N1CCC(Oc2ccnc3ccc(F)cc23)CC1 (single isomer, unassigned) [compound 105]",< 50 nM
2,"CC(C(=O)Nc1ccc(Cl)cc1)[C@]1(F)CC[C@H](c2ccnc3ccc(F)cc32)CC1 (mixture of isomers) [Example 233, (+/−)—N-(4-chlorophenyl)-2-(trans-1-fluoro-4-(6-fluoroquinolin-4-yl)cyclohexyl) propanamide]",< 50 nM
3,"CCC(C(=O)Nc1ccccc1)N1CCN(c2ccnc3ccc(F)cc23)CC1 (racemic) [Example 132, (±)-2-(4-(6-Fluoroquinolin-4-yl)piperazin-1-yl)-N-phenylbutanamide]",> 250 nM
4,"COC(=O)c1cccc(NC(=O)[C@H](C)[C@H]2CC[C@@H](c3ccnc4ccc(F)cc43)CC2)c1 [Example 67, methyl 3-((R)-2-((cis)-4-(6-fluoroquinolin-4-yl)cyclohexyl)propanamido)benzoate]",< 50 nM
5,"C[C@@H](C(=O)Nc1ccccc1)[C@H]1CC[C@@H](c2ccnc3ccc(F)cc32)CC1 [Example 58, (R)-2-((cis)-4-(6-fluoroquinolin-4-yl)cyclohexyl)-N-phenylpropanamide]",< 50 nM
6,"C[C@@H](C(=O)Nc1nccs1)[C@H]1CC[C@@H](c2ccnc3ccc(F)cc32)CC1 [Example 75, (R)-2-((cis)-4-(6-fluoroquinolin-4-yl)cyclohexyl)-N-(thiazol-2-yl)propanamide]",< 250 nM
7,CCC(C(=O)Nc1ccc(C)cc1)N1CCC(Oc2ccnc3ccc(F)cc23)CC1 (stereo not shown) [compound 97],< 250 nM
8,CC(C(=O)Nc1ccc(F)cc1)N1CCC(Oc2ccnc3ccc(F)cc23)CC1 (stereo not shown) [compound 99],< 50 nM
9,"CC(C(=O)Nc1ccccc1)N1CCN(c2ccnc3ccc(F)cc23)CC1 (racemic) [Example 128, (±)-2-(4-(6-Fluoroquinolin-4-yl)piperazin-1-yl)-N-phenylpropanamide]",> 250 nM
10,"CC(C(=O)Nc1ccc(Br)cc1)N1CCN(c2ccnc3ccc(F)cc23)CC1 (racemic) [Example 127, (±)—N-(4-Bromophenyl)-2-(4-(6-fluoroquinolin-4-yl)piperazin-1-yl)propanamide]",> 250 nM
11,"CCCC(C(=O)NC1(C)CCCCC1)N1CCN(c2ccnc3ccc(F)cc23)CC1 (single isomer, unassigned) [Example 248, 2-(4-(6-Fluoroquinolin-4-yl)piperazin-1-yl)-N-(1-methylcyclohexyl)pentanamide]",> 250 nM
12,"C[C@@H](C(=O)Nc1ccc(Cl)cc1O)[C@H]1CC[C@@H](c2ccnc3ccc(F)cc32)CC1 [Example 238, (R)-N-(4-chloro-2-hydroxyphenyl)-2-(cis-4-(6-fluoroquinolin-4-yl)cyclohexyl)propanamide]",< 50 nM
13,"O=C(CC1CCN(c2ccnc3ccc(F)cc23)CC1)Nc1ccc(F)cc1 [Example 115, N-(4-Fluorophenyl)-2-(1-(6-fluoroquinolin-4-yl)piperidin-4-yl)acetamide]",> 250 nM
14,"C[C@@H](C(=O)Nc1ccc(Cl)cc1)[C@H]1CC[C@@H](c2ccnc3c2ncn3C)CC1 (single isomer, unassigned) [Example 251d, N-(4-chlorophenyl)-2-(4-(3-methyl-3H-imidazo[4,5-b]pyridin-7-yl)cyclohexyl)propanamide]",> 250 nM
15,"Cc1cc(Cl)ccc1NC(=O)[C@H](C)[C@H]1CC[C@@H](c2ccnc3ccc(F)cc32)CC1 [Example 64, (R)-N-(4-chloro-2-methylphenyl)-2-((cis)-4-(6-fluoroquinolin-4-yl)cyclohexyl)propanamide]",< 250 nM
16,CC1(CC(=O)Nc2ccc(Cl)cc2)CCN(c2ccnc3ccc(F)cc23)CC1 [Example 123],< 50 nM
17,"C[C@@H](C(=O)Nc1ccncc1)[C@H]1CC[C@@H](c2ccnc3ccc(F)cc32)CC1 [Example 74, (R)-2-((cis)-4-(6-fluoroquinolin-4-yl)cyclohexyl)-N-(pyridin-4-yl)propanamide]",< 50 nM
18,"Cc1ccc(NC(=O)C(C)N2CCC(Oc3ccc4nccc(Cl)c4c3)CC2)cc1 (racemic) [Example 92, (±)-2-(4-((4-Chloroquinolin-6-yl)oxy)piperidin-1-yl)-N-(p-tolyl)propanamide]",> 250 nM
19,"CC(C(=O)Nc1ccc(Cl)cc1)N1CCC(Oc2ccc3nccc(Cl)c3c2)CC1 (single isomer, unassigned) [Example 94]",< 250 nM

row,Molecule,IC50
1,"CC(C(=O)O)c1ccc(C[C@@H](C(=O)Nc2ccc(C#N)cc2)[C@H]2CC[C@@H](c3ccnc4ccc(F)cc43)CC2)cc1 (stereo partly drawn) [Example 140, 2-(4-((R)-3-((4-Cyanophenyl)amino)-2-((cis)-4-(6-fluoroquinolin-4-yl)cyclohexyl)-3-oxopropyl)phenyl)propanoic Acid]",< 50 nM
2,"CCC(C(=O)Nc1ccc(Cl)cc1)[C@H]1CC[C@@H](Oc2ccnc3ccc(C(F)(F)F)cc23)CC1 (mixture of isomers) [Example 89, (±)—N-(4-Chlorophenyl)-2-((cis)-4-((6-(trifluoromethyl)quinolin-4-yl)oxy)cyclohexyl)butanamide]",> 250 nM
3,"COCC(C(=O)Nc1ccc(F)cc1)N1CCN(c2ccnc3ccc(F)cc23)CC1 (racemic) [Example 134, (±)—N-(4-Fluorophenyl)-2-(4-(6-fluoroquinolin-4-yl)piperazin-1-yl)-3-methoxypropanamide]",< 250 nM
4,O=C(CC1CCN(c2ccnc3ccc(F)cc23)CC1)Nc1ccc(Cl)cc1 [Example 116],> 250 nM
5,"CC(C(=O)Nc1ccc(Cl)cc1)N1CCC(Oc2ccnc3ccc(F)cc23)CC1 (racemic) [Example 96, (±)—N-(4-Chlorophenyl)-2-(4-((6-fluoroquinolin-4-yl)oxy)piperidin-1-yl)propanamide]",< 50 nM
6,Cc1ccc(NC(=O)CC2(C)CCN(c3ccnc4ccc(F)cc34)CC2)cc1 [Example 121],> 250 nM
7,"O=C(CC1CCN(Cc2ccnc3ccccc23)CC1)Nc1ccc(Cl)cc1 [Example 113, N-(4-Chlorophenyl)-2-(1-(quinolin-4-ylmethyl)piperidin-4-yl)acetamide]",< 50 nM
8,"C[C@@H](C(=O)Nc1ccc2c(c1)OC(F)(F)O2)[C@H]1CC[C@@H](c2ccnc3ccc(F)cc32)CC1 [Example 61, (R)-N-(2,2-difluorobenzo[d][1,3]dioxol-5-yl)-2-((cis)-4-(6-fluoroquinolin-4-yl)cyclohexyl)propanamide]",< 50 nM
9,"C[C@@H](C(=O)Nc1cccc(Oc2ccccc2)c1)[C@H]1CC[C@@H](c2ccnc3ccc(F)cc32)CC1 [Example 73, (R)-2-((cis)-4-(6-fluoroquinolin-4-yl)cyclohexyl)-N-(3-phenoxyphenyl)propanamide]",< 250 nM
10,CCOc1ccc(NC(=O)C(C)N2CCC(Oc3ccnc4ccc(F)cc34)CC2)cc1 (stereo not shown) [compound 108],< 250 nM
11,"C[C@@H](C(=O)Nc1ccc(Cl)cc1)[C@H]1CC[C@H](c2ccnc3ccc(I)cc32)CC1 (single isomer, unassigned) [Example 152d]",< 50 nM
12,Cc1ccc(NC(=O)CC2CCN(c3ccnc4ccc(F)cc34)CC2)c(F)c1 [Example 118],> 250 nM
13,"C[C@@H](C(=O)Nc1cccc(C(F)(F)F)c1)[C@H]1CC[C@@H](c2ccnc3ccc(F)cc32)CC1 [Example 70, (R)-2-((cis)-4-(6-fluoroquinolin-4-yl)cyclohexyl)-N-(3-(trifluoromethyl)phenyl)propanamide]",< 50 nM
14,"C[C@H](C(=O)Nc1ccc(Cl)cc1)[C@H]1CC[C@H](c2ccnc3ncccc32)CC1 (single isomer, unassigned) [Example 148c]",< 50 nM
15,"Cc1ccc(NC(=O)[C@H](C)[C@H]2CC[C@@H](c3ccnc4ccc(F)cc43)CC2)cc1Cl [Example 80, (R)-N-(3-chloro-4-methylphenyl)-2-((cis)-4-(6-fluoroquinolin-4-yl)cyclohexyl)propanamide]",< 50 nM
16,"C=CC[C@@H](C(=O)Nc1ccc(Cl)cc1N)[C@H]1CC[C@@H](c2ccnc3ccc(F)cc32)CC1 [Example 241, (R)-N-(2-amino-4-chlorophenyl)-2-(cis-4-(6-fluoroquinolin-4-yl)cyclohexyl)pent-4-enamide]",< 50 nM
17,"CCCC(C(=O)Nc1ccc(Cl)cc1)N1CCN(c2ccnc3ccc(F)cc23)CC1 (single isomer, unassigned) [Example 245, N-(4-Chlorophenyl)-2-(4-(6-fluoroquinolin-4-yl)piperazin-1-yl)pentanamide]",< 250 nM
18,"C[C@@H](C(=O)Nc1ccc(Cl)c(O)c1)[C@H]1CC[C@@H](c2ccnc3ccc(F)cc32)CC1 [Example 239, (R)-N-(4-chloro-3-hydroxyphenyl)-2-(cis-4-(6-fluoroquinolin-4-yl)cyclohexyl)propanamide]",< 50 nM
19,"C[C@@H](C(=O)Nc1ccc(Oc2ccccc2)cc1)[C@H]1CC[C@@H](c2ccnc3ccc(F)cc32)CC1 [Example 71, (R)-2-((cis)-4-(6-fluoroquinolin-4-yl)cyclohexyl)-N-(4-phenoxyphenyl)propanamide]",< 50 nM

# Reference: US20180282281A1, “IMMUNOREGULATORY AGENTS” (FLEXUS BIOSCIENCES, INC., priority 2014, published 2018)
